How the values were obtained:
[1] = Pharmacokinetic profiles in rats; assay type: in vivo, rat; details: for clearance / AUC(0-t) / half-life / Vd: iv dosing 1 mg/kg; for AUC(0-t) / half-life / Vd / bioavailability: rat, plasma; for Vd: read-out: Vss; for bioavailability: oral bioavailability
Procedure: The compounds disclosed herein are assessed in pharmacokinetic studies in mice, rats, dogs or monkeys. The compounds are administered as a water solution, 2% HPMC+1% TWEEN®80 in water solution, 5% DMSO+5% solutol in saline, 4% MC suspension or capsule. For the intravenous administration, the animals are generally given at 1 or 2 mg/kg dose. For the oral (p.o.) dosing, mice and rats are generally given 5 or 10 mg/kg dose, and dogs and monkeys are generally given 10 mg/kg dose. The blood samples (0.3 mL) are drawn at 0.25, 0.5, 1.0, 2.0, 3.0, 4.0, 6.0, 8.0, 12 and 24 h time points or 0.083, 0.25, 0.5, 1.0, 2.0, 4.0, 6.0, 8.0 and 24 h time points and centrifuged at 3,000 or 4000 rpm for 2 to 10 min. The plasma solutions are collected, stored at −20° C. or −70° C. until analyzed by LC/MS/MS as described above.

[2] = Compound stability in rat liver microsomes; assay type: in vitro ADME; details: for CLint scaled at 5 μM: liver microsomes, in vivo CLint extrapolated from rat liver microsome incubation; for CLint scaled at 5 μM / half-life at 5 μM: pH 7.4; for half-life at 5 μM: read-out: Rat T1/2
Procedure: (§1) Human or rat liver microsomes incubations were conducted in duplicate in polypropylene tubes. The typical incubation mixtures consisted of human or rat liver microsomes (0.5 mg protein/mL), compounds of interest (5 μM) and NADPH (1.0 mM) in a total volume of 200 μL potassium phosphate buffer (PBS, 100 mM, pH 7.4). Compounds were dissolved in DMSO and diluted with PBS such that the final concentration of DMSO was 0.05%. The enzymatic reactions were commenced with the addition of protein after a 3-min preincubation and incubated in a water bath open to the air at 37° C. Reactions were terminated at various time points (0, 5, 10, 15, 30, 60 min) by adding equal volume of ice-cold acetonitrile. The samples were stored at −80° C. until LC/MS/MS assays.
(§2) The concentrations of compounds in the incubation mixtures of human or rat liver microsomes were determined by a LC/MS/MS method. The ranges of the linearity in the concentration range were determined for each tested compounds.
(§3) A parallel incubation was performed using denatured microsomes as the negative control, and reactions were terminated at various time points (0, 15, 60 min) after incubation at 37° C.
(§4) Dextromethorphan (70 μM) was selected as the positive control, and reactions were terminated at various time points (0, 5, 10, 15, 30, 60 min) after incubation at 37° C. Both positive and negative control samples were included in each assay to ensure the integrity of the microsomal incubation system.
(§5) The concentrations of compounds in human or rat liver microsome incubations were plotted as a percentage of the relevant zero time point control for each reaction.

[3] = Compound stability in human liver microsomes; assay type: in vitro ADME; details: pH 7.4; for CLint scaled at 5 μM: liver microsomes, in vivo CLint extrapolated from human liver microsome incubation; for half-life at 5 μM: human liver microsomes 0.5 mg protein/mL, compound 5 μM, NADPH, 37° C., read-out: Human T1/2
Procedure: as §1, §2, §3, §4, §5

[4] = rat liver microsomes 0.5 mg protein/mL, compound 5 μM, NADPH, 37° C.

SMILES	clearance [1]	AUC(0-t) [1]	half-life [1]	Vd [1]	bioavailability [1]	CLint scaled at 5 μM [2]	half-life at 5 μM [2, 4]	CLint scaled at 5 μM [3]	half-life at 5 μM [3]	Rat T1/2 [2, 4]
Cc1noc(-c2c(N)ncnc2N[C@@H](C)c2nc3cccc(C#CC(C)(C)O)c3c(=O)n2-c2ccccc2)n1 [Example 1, (S)-2-(1-((6-amino-5-(3-methyl-1,2,4-oxadiazol-5-yl)pyrimidin-4-yl)amino)ethyl)-5-(3-hydroxy-3-methylbut-1-yn-1-yl)-3-phenylquinazolin-4(3H)-one]	9.17 mL/min/kg	1440 ng·h/mL	3.24 h	2.38 L/kg	120%	2.5 mL/min/kg	16.3 h	14.3 mL/min/kg	2.03 h	–
Cc1nnc(-c2c(N)ncnc2N[C@@H](C)c2nc3cccc(C#CC(C)(C)O)c3c(=O)n2-c2ccccc2)o1 [Example 2, (S)-2-(1-((6-amino-5-(5-methyl-1,3,4-oxadiazol-2-yl)pyrimidin-4-yl)amino)ethyl)-5-(3-hydroxy-3-methylbut-1-yn-1-yl)-3-phenylquinazolin-4(3H)-one]	11.3 mL/min/kg	1370 ng·h/mL	1.42 h	1.3 L/kg	106%	–	–	3.84 mL/min/kg	7.54 h	∞
Cc1nc(-c2c(N)ncnc2N[C@@H](C)c2nc3cccc(C#CC(C)(C)O)c3c(=O)n2-c2ccccc2)no1 [Example 3, (S)-2-(1-((6-amino-5-(5-methyl-1,2,4-oxadiazol-3-yl)pyrimidin-4-yl)amino)ethyl)-5-(3-hydroxy-3-methylbut-1-yn-1-yl)-3-phenylquinazolin-4(3H)-one]	13 mL/min/kg	1210 ng·h/mL	1.76 h	–	146%	4.75 mL/min/kg	8.72 h	9.46 mL/min/kg	3.06 h	–
C[C@H](Nc1ncnc(N)c1-c1nnn(C)n1)c1nc2cccc(C#CC(C)(C)O)c2c(=O)n1-c1ccccc1 [Example 4, (S)-2-(1-((6-amino-5-(2-methyl-2H-tetrazol-5-yl)pyrimidin-4-yl)amino)ethyl)-5-(3-hydroxy-3-methylbut-1-yn-1-yl)-3-phenylquinazolin-4(3H)-one]	8.33 mL/min/kg	1870 ng·h/mL	1.87 h	1.04 L/kg	134%	5.58 mL/min/kg	7.41 h	5.8 mL/min/kg	5 h	–
Cc1nnc(-c2c(N)ncnc2N[C@@H](C)c2nc3cccc(C#CC(C)O)c3c(=O)n2-c2ccccc2)o1 (stereo partly drawn) [Example 7, 2-((S)-1-((6-amino-5-(5-methyl-1,3,4-oxadiazol-2-yl)pyrimidin-4-yl)amino)ethyl)-5-(3-hydroxybut-1-yn-1-yl)-3-phenylquinazolin-4(3H)-one]	19.3 mL/min/kg	862 ng·h/mL	0.61 h	0.61 L/kg	38.3%	15.3 mL/min/kg	2.71 h	6.34 mL/min/kg	4.57 h	–
CC#Cc1cccc2nc([C@H](C)Nc3ncnc(N)c3-c3nnc(C)o3)n(C3CC3)c(=O)c12 [Example 22]	25.3 mL/min/kg	675 ng·h/mL	0.97 h	1.83 L/kg	83.7%	41.8 mL/min/kg	0.991 h	62.5 mL/min/kg	0.464 h	–
Cc1nc(-c2c(N)ncnc2N[C@@H](C)c2nc3cccc(C#CCO)c3c(=O)n2-c2ccccc2)no1 [Example 38, (S)-2-(1-((6-amino-5-(5-methyl-1,2,4-oxadiazol-3-yl)pyrimidin-4-yl)amino)ethyl)-5-(3-hydroxyprop-1-yn-1-yl)-3-phenylquinazolin-4(3H)-one]	21.3 mL/min/kg	790 ng·h/mL	0.76 h	1.35 L/kg	40.4%	52.7 mL/min/kg	0.785 h	40.4 mL/min/kg	0.717 h	–

— patent US10751339B2, “Substituted aminopyrimidine compounds and methods of use” (SUNSHINE LAKE PHARMA CO., LTD., priority 2018, dated 2020)
